Laboratory results taken from the supplement of paper PMC10331698.
± gives the standard deviation of the averaged measurements.

What was measured:
Assay in all cases: level (log10 ratio to DMSO vehicle control); higher = higher biomarker level / cell amount than vehicle control
[1] = compound: FC(F)(F)C(F)(F)C(F)(F)C(F)(F)C(F)(F)C(F)(F)CC1CO1 [3-(Perfluorohexyl)-1,2-epoxypropane]; details: in DMSO
Protocol: (§1)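 BioMAP Diversity Plus panel of 12 human primary cell co-culture systems (3C, 4H, LPS, SAg, BT, BF4T, BE3C, CASM3C, HDF3CGF, KF3CT, MyoF, Mphg). Compounds were added 1 h before stimulation and left for 24 h (MyoF 48 h; BT 72 h for soluble read-outs or 6 d for IgG). Biomarkers were read by ELISA, cytotoxicity by SRB, PBMC viability and proliferation by Alamar Blue. Each well value was divided by the mean of 8 DMSO control wells on the same plate and log10 transformed; duplicate blinded samples were tested at 4 concentrations.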

[2] = compound: NS(=O)(=O)C(F)(F)C(F)(F)C(F)(F)C(F)(F)C(F)(F)C(F)(F)F [Perfluorohexanesulfonamide]; details: in DMSO
Protocol: as §1

[3] = compound: NC(=O)C(F)(F)C(F)(F)C(F)(F)C(F)F; details: in DMSO
Protocol: as §1

[4] = compound: O=S(=O)(O)CCC(F)(F)C(F)(F)C(F)(F)C(F)(F)C(F)(F)C(F)(F)F [6:2 Fluorotelomer sulfonic acid]; details: in DMSO
Protocol: as §1

[5] = compound: FC(F)(F)C(F)(F)C(F)(F)CC1CO1 [1H,1H-Heptafluorobutyl epoxide]; details: in DMSO
Protocol: as §1

[6] = compound: O=S(=O)(F)C(F)(F)C(F)(F)C(F)(F)C(F)(F)C(F)(F)C(F)(F)C(F)(F)C(F)(F)F [Perfluorooctanesulfonyl fluoride]; details: in DMSO
Protocol: as §1

[7] = compound: O=S(=O)(O)C(F)(F)C(F)(F)C(F)(F)C(F)(F)C(F)(F)C(F)(F)C(F)(F)C(F)(F)C(F)(F)C(F)(F)F [Sodium perfluorodecanesulfonate]; details: in DMSO
Protocol: as §1

[8] = compound: C=CC(=O)OCC(F)(F)C(F)(F)C(F)(F)COC(=O)C=C [1H,1H,5H,5H-Perfluoro-1,5-pentanediol diacrylate]; details: 6700 nM; in DMSO
Protocol: as §1

[9] = compound: FC(F)(F)C(F)(F)C(F)(F)C(F)(F)C(F)(F)C(F)(F)C(F)(F)I [1-Iodopentadecafluoroheptane]; details: in DMSO
Protocol: as §1

Heptafluorobutyl iodide = compound: FC(F)(F)C(F)(F)C(F)(F)CI [Heptafluorobutyl iodide]; details: in DMSO
Protocol: as §1

[10] = compound: C=C(C)C(=O)OCCC(F)(F)C(F)(F)C(F)(F)C(F)(F)C(F)(F)C(F)(F)F [6:2 Fluorotelomer methacrylate]; details: in DMSO
Protocol: as §1

[11] = compound: O=C(O)C=CC(F)(C(F)(F)F)C(F)(F)F [3-(Perfluoroisopropyl)-2-propenoic acid]; details: in DMSO
Protocol: as §1

Hexafluoroamylene glycol = compound: OCC(F)(F)C(F)(F)C(F)(F)CO [Hexafluoroamylene glycol]; details: in DMSO
Protocol: as §1

Octafluoroadipamide = compound: NC(=O)C(F)(F)C(F)(F)C(F)(F)C(F)(F)C(N)=O [Octafluoroadipamide]; details: in DMSO
Protocol: as §1

[12] = compound: COC(=O)C(F)(F)C(F)(F)OC(F)(C(F)(F)F)C(F)(F)OC(F)=C(F)F [Methyl perfluoro(3-(1-ethenyloxypropan-2-yloxy)propanoate)]; details: in DMSO
Protocol: as §1

[13] = compound: O=C(O)C(F)(F)C(F)(F)C(F)(F)C(F)(F)C(F)(F)C(F)(F)C(F)(F)C(F)(F)C(F)(F)C(F)F [11-H-Perfluoroundecanoic acid]; details: in DMSO
Protocol: as §1

[14] = compound: O=S(=O)(Cl)C(F)(F)C(F)(F)C(F)(F)C(F)(F)C(F)(F)C(F)(F)C(F)(F)C(F)(F)F [Perfluoro-1-octanesulfonyl chloride]; details: in DMSO
Protocol: as §1

[15] = compound: FC(F)(F)C(F)(F)CNCC(F)(F)C(F)(F)F [Bis(1H,1H-perfluoropropyl)amine]; details: in DMSO
Protocol: as §1

Nonafluoropentanamide = compound: NC(=O)C(F)(F)C(F)(F)C(F)(F)C(F)(F)F [Nonafluoropentanamide]; details: in DMSO
Protocol: as §1

## KF3CT:PAI-I
[1]; 6700 nM
  level (log10): 0.0145 ± 0.032
[1]; 20000 nM
  level (log10): 0.019 ± 0.0014
[1]; 60000 nM
  level (log10): 0.0195 ± 0.0021
[2]; 6700 nM
  level (log10): 0.0045 ± 0.016
[2]; 20000 nM
  level (log10): 0.0035 ± 0.021
[2]; 60000 nM
  level (log10): -0.0285 ± 0.022
[3]; 6700 nM
  level (log10): -0.005 ± 0.0042
[3]; 20000 nM
  level (log10): -0.0085 ± 0.0064
[3]; 60000 nM
  level (log10): -0.007 ± 0.02
[4]; 6700 nM
  level (log10): 0.0025 ± 0.0021
[4]; 20000 nM
  level (log10): -0.012 ± 0.018
[4]; 60000 nM
  level (log10): -0.0135 ± 0.0092
[5]; 6700 nM
  level (log10): -0.0145 ± 0.00071
[5]; 20000 nM
  level (log10): -0.0115 ± 0.018
[5]; 60000 nM
  level (log10): -0.014 ± 0.0085
[6]; 6700 nM
  level (log10): -0.0005 ± 0.018
[6]; 20000 nM
  level (log10): -0.008 ± 0.0057
[6]; 60000 nM
  level (log10): 0.0025 ± 0.012
[7]; 1500 nM
  level (log10): -0.0085 ± 0.046
[7]; 4400 nM
  level (log10): -0.021 ± 0.013
[7]; 13000 nM
  level (log10): -0.0415 ± 0.0035
[7]; 40000 nM
  level (log10): -0.0715 ± 0.028
[8]
  level (log10): 0.014 ± 0.0028
[9]; 6700 nM
  level (log10): -0.0055 ± 0.04
[9]; 20000 nM
  level (log10): -0.0275 ± 0.028
Heptafluorobutyl iodide; 6700 nM
  level (log10): 0.0005 ± 0.0035
Heptafluorobutyl iodide; 20000 nM
  level (log10): -0.0185 ± 0.016
Heptafluorobutyl iodide; 60000 nM
  level (log10): -0.008 ± 0.0071
[10]; 6700 nM
  level (log10): -0.0465 ± 0.018
[10]; 20000 nM
  level (log10): -0.035 ± 0.016
[10]; 60000 nM
  level (log10): -0.0535 ± 0.03
[11]; 6700 nM
  level (log10): 0.0045 ± 0.0092
[11]; 20000 nM
  level (log10): 0.023 ± 0.0085
[11]; 60000 nM
  level (log10): 0.0165 ± 0.0021
Hexafluoroamylene glycol; 6700 nM
  level (log10): 0.002 ± 0.016
Hexafluoroamylene glycol; 20000 nM
  level (log10): -0.0055 ± 0.005
Hexafluoroamylene glycol; 60000 nM
  level (log10): 0.013
Octafluoroadipamide; 6700 nM
  level (log10): -0.0155 ± 0.012
Octafluoroadipamide; 20000 nM
  level (log10): -0.0145 ± 0.025
Octafluoroadipamide; 60000 nM
  level (log10): 0.004 ± 0.02
[12]; 6700 nM
  level (log10): 0.0045 ± 0.019
[12]; 20000 nM
  level (log10): -0.0045 ± 0.012
[13]; 6700 nM
  level (log10): -0.0025 ± 0.03
[13]; 20000 nM
  level (log10): -0.12 ± 0.044
[14]; 6700 nM
  level (log10): -0.036 ± 0.014
[14]; 20000 nM
  level (log10): -0.116 ± 0.0057
[14]; 60000 nM
  level (log10): -0.2505 ± 0.0021
[15]; 6700 nM
  level (log10): -0.008 ± 0.03
[15]; 20000 nM
  level (log10): -0.0005 ± 0.005
[15]; 60000 nM
  level (log10): 0 ± 0.0042
Nonafluoropentanamide; 6700 nM
  level (log10): -0.042 ± 0.0099
Nonafluoropentanamide; 20000 nM
  level (log10): -0.0205 ± 0.036
Nonafluoropentanamide; 60000 nM
  level (log10): -0.0375 ± 0.00071
